Reference: patent US20070208085A1 (SOMANTA LIMITED, priority 2006, published 2007)
Where two headings read alike, the source gives them in different places.

How the values were obtained:
Test in all cases: NCI human cell line panel cytotoxicity
Format in all cases: cell-based
SF 268 = settings: CNS
Experimental: (§1) To identify the activity of the compound of formula IV in additional cell lines, an NCI human cell line panel was screened for sensitivity to the compound. Cytotoxicity was evaluated for chloroethylaminoanthraquinone compounds synthesized as described in EXAMPLE 1, using an in vitro cell based assay as described in Pors et al., Mol. Cancer Ther., 2:607-610 (2003).
(§2) Human tumor cell lines from the NCI human cell line panel (Table 2) were tested in the assay.
(§3) Growth inhibition was determined, and was expressed as the concentration (nM) required to inhibit cell growth by 50% (IG50). […] In particular, excellent activity was observed against CNS, colon, NSCLC and renal cancer cell lines. […] Standard methods were used for MTT results (Monks A et. al., J. Natl Cancer Inst. 1991 June 5;83(11):757-66).

SN12C = settings: Renal
Experimental: as §1, §2, §3

MDA-MB-231/ATCC = settings: Breast
Experimental: as §1, §2, §3

PC3 = settings: PC-3, Prostate
Experimental: as §1, §2, §3

TK10 = settings: TK-10, Renal
Experimental: as §1, §2, §3

NCI-H322M = settings: NSCLC
Experimental: as §1, §2, §3

UACC-62 = settings: Melanoma
Experimental: as §1, §2, §3

MCF7 = settings: Breast
Experimental: as §1, §2, §3

A549/ATCC = settings: NSCLC
Experimental: as §1, §2, §3

HCT-15 = settings: Colon
Experimental: as §1, §2, §3

EKVX = settings: NSCLC
Experimental: as §1, §2, §3

SF 539 = settings: CNS
Experimental: as §1, §2, §3

UACC-257 = settings: Melanoma
Experimental: as §1, §2, §3

BT549 = settings: BT-549, Breast
Experimental: as §1, §2, §3

NCI-H460 = settings: NSCLC
Experimental: as §1, §2, §3

KM 12 = settings: KM12, Colon
Experimental: as §1, §2, §3

Structure (SMILES): CN(C)CCNc1ccc(NCCN(CCCl)CCCl)c2c1C(=O)c1c(O)ccc(O)c1C2=O [Compound IV]
- IC50 (SF 268; read-out: IC50 nM): < 10 nM
- IC50 (SF 268; read-out: IC50): < 10 nM
- IC50 (SF 268; read-out: Log IC50 (converted)): ≤ 10 nM
- IC50 (SN12C; read-out: IC50 nM): 27 nM
- IC50 (SN12C; read-out: IC50): 26.9 nM
- IC50 (SN12C; read-out: Log IC50 (converted)): 26.9 nM
- IC50 (MDA-MB-231/ATCC; read-out: IC50 nM): 100 nM
- IC50 (MDA-MB-231/ATCC; read-out: IC50): 100 nM
- IC50 (MDA-MB-231/ATCC; read-out: Log IC50 (converted)): 100 nM
- IC50 (PC3; read-out: IC50 nM): 50 nM
- IC50 (PC3; read-out: IC50): 50.1 nM
- IC50 (PC3; read-out: Log IC50 (converted)): 50.1 nM
- IC50 (TK10; read-out: IC50 nM): 407 nM
- IC50 (TK10; read-out: IC50): 407 nM
- IC50 (TK10; read-out: Log IC50 (converted)): 407 nM
- IC50 (NCI-H322M; read-out: IC50 nM): 295 nM
- IC50 (NCI-H322M; read-out: IC50): 295 nM
- IC50 (NCI-H322M; read-out: Log IC50 (converted)): 295 nM
- IC50 (UACC-62; read-out: IC50 nM): 219 nM
- IC50 (UACC-62; read-out: IC50): 219 nM
- IC50 (UACC-62; read-out: Log IC50 (converted)): 219 nM
- IC50 (MCF7; read-out: IC50 nM): < 10 nM
- IC50 (MCF7; read-out: IC50): < 10 nM
- IC50 (MCF7; read-out: Log IC50 (converted)): ≤ 10 nM
- IC50 (A549/ATCC; read-out: IC50 nM): 27 nM
- IC50 (A549/ATCC; read-out: IC50): 26.9 nM
- IC50 (A549/ATCC; read-out: Log IC50 (converted)): 26.9 nM
- IC50 (HCT-15; read-out: IC50 nM): < 10 nM
- IC50 (HCT-15; read-out: IC50): < 10 nM
- IC50 (HCT-15; read-out: Log IC50 (converted)): ≤ 10 nM
- IC50 (EKVX; read-out: IC50 nM): 759 nM
- IC50 (EKVX; read-out: IC50): 759 nM
- IC50 (EKVX; read-out: Log IC50 (converted)): 759 nM
- IC50 (SF 539; read-out: IC50 nM): < 10 nM
- IC50 (SF 539; read-out: IC50): < 10 nM
- IC50 (SF 539; read-out: Log IC50 (converted)): ≤ 10 nM
- IC50 (UACC-257; read-out: IC50 nM): 1860 nM
- IC50 (UACC-257; read-out: IC50): 1860 nM
- IC50 (UACC-257; read-out: Log IC50 (converted)): 1860 nM
- IC50 (BT549; read-out: IC50 nM): 2040 nM
- IC50 (BT549; read-out: IC50): 2040 nM
- IC50 (BT549; read-out: Log IC50 (converted)): 2040 nM
- IC50 (NCI-H460; read-out: IC50 nM): < 10 nM
- IC50 (NCI-H460; read-out: IC50): < 10 nM
- IC50 (NCI-H460; read-out: Log IC50 (converted)): ≤ 10 nM
- IC50 (KM 12; read-out: IC50 nM): 138 nM
- IC50 (KM 12; read-out: IC50): 138 nM
